The results in this text go back to ChEMBL document CHEMBL1828594, “Synthesis, stereochemistry and SAR of a series of minodronate analogues as RGGT inhibitors” (Eur J Med Chem, 2011).

pIC50: −log10 of the molar value.

Experiment [1] can be described thus: Inhibition of RGGT in cell-based assay assessed as inhibition of Rab11 prenylation after 24 hrs by Western blot analysis. (In general: A western blot detects proteins with antibodies after separation by electrophoresis.)
Experiment [2] concerns J774. The experiment can be described thus: Cytotoxicity against mouse J774 cells assessed as reduction in cell viability after 48 hrs. It counts as functional, cell-based. To be noted: J774, 48 h.
The nature of experiment [3]: Inhibition of RGGT assessed as [3H]GGPP incorporation into Rab1a protein after 30 mins.

A word on the pIC50: it is the IC50 on a negative log10 scale, so that one unit is a factor of ten. `O=C(O)C(F)(Cc1cnc2ccccn12)P(=O)(O)O` (stereo not given): the LED in experiment [1] came out at 6 µM. Besides, the pIC50 in experiment [2] was 4.22; in experiment [3] it was 5.21.

For the compound `O=C(O)C(Cc1cnc2ccccn12)P(=O)(O)O` (racemic), the LED in experiment [1] worked out at 12 µM. The pIC50 was less than 3.22 in experiment [2] and 4.87 in experiment [3].

With `O=C(O)C(Cl)(Cc1cnc2ccccn12)P(=O)(O)O` (racemic), in experiment [1], the LED turned out to be 12 µM. Also, the results for the negative-log IC50 (pIC50) in experiment [2] and in experiment [3] were less than 3.40 and 5.12, respectively.

For `O=C(O)C(Br)(Cc1cnc2ccccn12)P(=O)(O)O` (racemic), in experiment [1], the LED came to 25 µM. Moreover, the values for the pIC50 in experiment [2] and in experiment [3] were less than 3.22 and 5.25, respectively.

For the compound `O=C(O)C(O)(Cc1cnc2ccccn12)P(=O)(O)O` (racemic) [(2-HYDROXY-3-IMIDAZO[1,2-A]PYRIDIN-3-YL-2-PHOSPHONOPROPIONIC ACID (ENANTIONMERS)], in experiment [1], the LED was 3 µM. Further, the pIC50 was 4.30 in experiment [2] and 5.91 in experiment [3].
